Active and inactive are the calls of the source.
Tests used:
[1] = target: T1, Short transient receptor potential channel 4 (Mus musculus, UniProt Q9QUQ5); assay: calcium entry via TRPC4 opening agents – cell-based, HEK293 TRPC4/mu-opioid, Fluo-4 calcium, dose response (AID 434937); format: functional
T1 sequence (Q9QUQ5 whole entry): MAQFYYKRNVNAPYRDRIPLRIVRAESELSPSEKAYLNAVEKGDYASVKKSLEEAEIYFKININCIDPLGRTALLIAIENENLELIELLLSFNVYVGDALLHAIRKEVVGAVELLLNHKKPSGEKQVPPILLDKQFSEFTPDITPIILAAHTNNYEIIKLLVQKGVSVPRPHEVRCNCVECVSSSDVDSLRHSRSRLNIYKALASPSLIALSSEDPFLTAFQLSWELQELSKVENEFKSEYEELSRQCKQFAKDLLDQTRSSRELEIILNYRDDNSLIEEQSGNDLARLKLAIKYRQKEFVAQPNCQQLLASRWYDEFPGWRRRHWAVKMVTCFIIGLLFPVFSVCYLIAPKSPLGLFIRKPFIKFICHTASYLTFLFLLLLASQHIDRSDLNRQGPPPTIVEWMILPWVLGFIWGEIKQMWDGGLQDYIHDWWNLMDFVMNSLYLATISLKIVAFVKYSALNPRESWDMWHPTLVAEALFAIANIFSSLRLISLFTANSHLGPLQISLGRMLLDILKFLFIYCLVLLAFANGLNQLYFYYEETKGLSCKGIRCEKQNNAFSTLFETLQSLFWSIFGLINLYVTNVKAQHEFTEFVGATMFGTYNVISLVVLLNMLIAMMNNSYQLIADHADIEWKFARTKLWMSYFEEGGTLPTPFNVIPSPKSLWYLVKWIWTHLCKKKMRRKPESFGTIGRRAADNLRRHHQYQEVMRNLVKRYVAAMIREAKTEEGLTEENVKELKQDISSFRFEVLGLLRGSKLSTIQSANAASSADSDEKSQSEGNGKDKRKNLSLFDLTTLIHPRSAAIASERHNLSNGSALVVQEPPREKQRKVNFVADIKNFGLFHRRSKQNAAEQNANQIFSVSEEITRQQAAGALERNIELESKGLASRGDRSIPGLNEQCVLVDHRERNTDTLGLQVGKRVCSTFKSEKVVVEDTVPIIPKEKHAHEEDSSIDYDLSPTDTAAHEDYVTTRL

Cytochrome P450 2C9 = Cytochrome P450 2C9 (Homo sapiens, UniProt P11712)
Sequence of Cytochrome P450 2C9 (P11712 whole entry): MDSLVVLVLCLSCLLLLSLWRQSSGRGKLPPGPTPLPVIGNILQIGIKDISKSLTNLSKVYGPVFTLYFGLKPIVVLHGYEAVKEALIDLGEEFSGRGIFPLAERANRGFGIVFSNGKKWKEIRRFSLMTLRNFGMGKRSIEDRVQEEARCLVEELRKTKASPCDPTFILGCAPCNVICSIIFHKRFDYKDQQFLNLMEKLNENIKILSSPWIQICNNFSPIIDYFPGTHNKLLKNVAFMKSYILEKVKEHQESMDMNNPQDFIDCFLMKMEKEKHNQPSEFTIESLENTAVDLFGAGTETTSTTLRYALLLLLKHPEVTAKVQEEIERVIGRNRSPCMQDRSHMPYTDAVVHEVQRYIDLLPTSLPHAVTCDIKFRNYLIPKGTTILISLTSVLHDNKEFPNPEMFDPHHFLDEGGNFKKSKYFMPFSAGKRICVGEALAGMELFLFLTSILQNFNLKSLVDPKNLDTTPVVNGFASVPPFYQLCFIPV

Cytochrome P450 3A4 = Cytochrome P450 3A4 (Homo sapiens, UniProt P08684);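 also: CYP3A4 tested as one member of a cytochrome P450 panel screen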
Sequence of Cytochrome P450 3A4 (P08684 whole entry): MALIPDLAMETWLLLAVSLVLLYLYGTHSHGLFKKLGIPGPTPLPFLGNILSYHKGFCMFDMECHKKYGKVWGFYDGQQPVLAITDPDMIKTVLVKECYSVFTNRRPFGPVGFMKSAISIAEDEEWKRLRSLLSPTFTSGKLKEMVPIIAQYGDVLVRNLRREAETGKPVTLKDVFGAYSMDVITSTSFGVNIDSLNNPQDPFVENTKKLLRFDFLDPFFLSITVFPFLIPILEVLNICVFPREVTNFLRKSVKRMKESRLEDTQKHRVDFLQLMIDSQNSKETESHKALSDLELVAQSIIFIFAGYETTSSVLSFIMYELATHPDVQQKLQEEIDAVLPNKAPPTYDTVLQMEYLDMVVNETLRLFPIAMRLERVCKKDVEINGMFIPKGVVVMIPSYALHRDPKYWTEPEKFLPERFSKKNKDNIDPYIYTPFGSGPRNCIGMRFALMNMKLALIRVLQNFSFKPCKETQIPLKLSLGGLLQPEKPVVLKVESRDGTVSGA

[2] = target: T2, Rac GTPase-activating protein 1 (Homo sapiens, UniProt Q9H0H5); assay: blockers of MgcRacGAP-driven Rac1 GTP hydrolysis – biochemical, ADP Hunter fluorescence, primary and confirmatory, confirmation (AID 624330); format: functional
T2 sequence (Q9H0H5 whole entry): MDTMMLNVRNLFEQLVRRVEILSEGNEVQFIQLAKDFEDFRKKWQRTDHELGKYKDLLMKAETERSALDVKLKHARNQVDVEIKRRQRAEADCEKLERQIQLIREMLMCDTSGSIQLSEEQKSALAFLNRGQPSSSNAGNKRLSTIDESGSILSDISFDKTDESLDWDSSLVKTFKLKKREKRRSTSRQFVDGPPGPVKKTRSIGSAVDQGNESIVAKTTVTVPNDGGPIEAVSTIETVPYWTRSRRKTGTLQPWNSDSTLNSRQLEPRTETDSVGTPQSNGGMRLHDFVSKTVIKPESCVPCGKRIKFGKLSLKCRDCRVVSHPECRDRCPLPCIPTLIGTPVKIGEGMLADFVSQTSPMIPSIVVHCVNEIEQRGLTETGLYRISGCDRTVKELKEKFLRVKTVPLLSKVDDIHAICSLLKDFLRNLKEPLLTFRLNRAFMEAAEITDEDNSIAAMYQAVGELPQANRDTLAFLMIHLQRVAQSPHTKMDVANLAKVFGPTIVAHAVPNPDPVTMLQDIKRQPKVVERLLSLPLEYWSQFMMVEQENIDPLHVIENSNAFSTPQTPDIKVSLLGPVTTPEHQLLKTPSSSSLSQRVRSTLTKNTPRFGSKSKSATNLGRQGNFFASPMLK

[3] = target: Glucose-6-phosphate 1-dehydrogenase (Homo sapiens, UniProt P11413); assay: inhibition of Homo sapiens G6PD, dose series – biochemical, fluorescence, selectivity assay for P. falciparum G6PD inhibitor project, dose response (AID 504792); format: functional
Sequence of Glucose-6-phosphate 1-dehydrogenase (P11413 whole entry): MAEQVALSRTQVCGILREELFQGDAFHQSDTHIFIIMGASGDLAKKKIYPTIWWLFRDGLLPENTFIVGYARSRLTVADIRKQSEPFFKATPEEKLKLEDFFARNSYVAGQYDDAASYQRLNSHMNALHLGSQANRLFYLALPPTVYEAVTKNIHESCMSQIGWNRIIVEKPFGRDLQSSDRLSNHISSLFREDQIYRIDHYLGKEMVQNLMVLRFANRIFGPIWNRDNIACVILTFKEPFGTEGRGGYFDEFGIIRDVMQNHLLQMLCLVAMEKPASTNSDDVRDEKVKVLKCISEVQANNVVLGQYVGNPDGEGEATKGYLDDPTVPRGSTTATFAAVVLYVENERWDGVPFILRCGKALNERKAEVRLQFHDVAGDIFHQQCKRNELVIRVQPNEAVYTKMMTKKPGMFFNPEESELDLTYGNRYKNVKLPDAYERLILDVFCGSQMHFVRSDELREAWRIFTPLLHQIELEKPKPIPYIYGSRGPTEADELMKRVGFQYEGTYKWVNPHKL

[4] = microbe, parasite or virus in culture; format: functional; settings: Mycobacterium tuberculosis
H4 = assay: Luminescence Cell-Based Dose Response HTS to Identify Activators of 5'UTR Stem-Loop Driven Prion Protein mRNA Translation in H4 Neuroglioblastoma Cells. [Related pubchem assays: 1829 (Project Summary), 1814 (Primary HTS)]; format: functional; settings: Homo sapiens
[5] = Luminescence Cell-Based Dose Response HTS to Identify Activators of Luciferase Translation or Activity in H4 […] Cells. [Related pubchem assays: 1829 (Project Summary), 1814 (Primary HTS)]; format: functional
[6] = target: T3, Low molecular weight phosphotyrosine protein phosphatase (Homo sapiens, UniProt P24666); format: functional; settings: read-out: IC50_Mean;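 also: Dose-response confirmation assay measuring inhibition of LMPTP enzyme activity by fluorescence intensity read-out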
T3 sequence (P24666 whole entry): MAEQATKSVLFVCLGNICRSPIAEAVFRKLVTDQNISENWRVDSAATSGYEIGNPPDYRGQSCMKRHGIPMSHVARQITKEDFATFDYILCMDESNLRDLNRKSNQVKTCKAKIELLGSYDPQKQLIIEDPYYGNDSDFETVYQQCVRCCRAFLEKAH

[7] = target: T4, Carboxy-terminal domain RNA polymerase II polypeptide A small phosphatase 1 (Homo sapiens, UniProt Q9GZU7); assay: CTDSP1 inhibitors, concentration-response, biochemical, absorbance readout, ultra-high-throughput screen actives (AID 540297); format: functional
T4 sequence (Q9GZU7 whole entry): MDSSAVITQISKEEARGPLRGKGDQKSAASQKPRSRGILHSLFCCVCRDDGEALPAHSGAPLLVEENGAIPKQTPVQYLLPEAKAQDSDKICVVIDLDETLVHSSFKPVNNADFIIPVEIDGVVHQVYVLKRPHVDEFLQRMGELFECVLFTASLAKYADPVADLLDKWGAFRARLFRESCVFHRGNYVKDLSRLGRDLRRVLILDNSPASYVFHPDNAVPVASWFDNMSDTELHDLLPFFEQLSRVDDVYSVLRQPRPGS

[8] = Luminescence Cell-Based Dose Confirmation HTS to Identify Activators of 5'UTR Stem-Loop Driven Alpha-Synuclein mRNA Translation in H4 Neuroglioblastoma Cells. [Related pubchem assays: 1829 (Project Summary), 1814 (Primary HTS)]; format: functional
[9] = NIH3T3 cell viability loss – ATP luminescence, mouse fibroblasts, counter-screen, dose response (AID 2010); format: functional, cell-based;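 also: cells exposed to compound for about 90 hours before reading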
[10] = Trypanosoma cruzi growth suppression in host cells – NIH3T3 host cells, beta-gal luminescence, confirmation (AID 2044); format: functional, cell-based;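 also: intracellular parasites grown in NIH/3T3 mouse fibroblasts as host cells; luminescent beta-galactosidase reporter signal from transgenic T. cruzi replicating inside host cells; inhibitors lower the luminescence signal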
HEK293 = assay: EBV LMP1 TES2 canonical NF-kB signalling blockers – cell-based, HEK293, luciferase, cherry-pick, dose response (AID 588343); format: functional; settings: Homo sapiens
[11] = target: DNA dC->dU-editing enzyme APOBEC-3G (Homo sapiens, UniProt Q9HC16); format: functional;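 also: Dose-response counterscreen measuring inhibition of APOBEC3G DNA deaminase activity, run while confirming APOBEC3A inhibitors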
Sequence of DNA dC->dU-editing enzyme APOBEC-3G (Q9HC16 whole entry): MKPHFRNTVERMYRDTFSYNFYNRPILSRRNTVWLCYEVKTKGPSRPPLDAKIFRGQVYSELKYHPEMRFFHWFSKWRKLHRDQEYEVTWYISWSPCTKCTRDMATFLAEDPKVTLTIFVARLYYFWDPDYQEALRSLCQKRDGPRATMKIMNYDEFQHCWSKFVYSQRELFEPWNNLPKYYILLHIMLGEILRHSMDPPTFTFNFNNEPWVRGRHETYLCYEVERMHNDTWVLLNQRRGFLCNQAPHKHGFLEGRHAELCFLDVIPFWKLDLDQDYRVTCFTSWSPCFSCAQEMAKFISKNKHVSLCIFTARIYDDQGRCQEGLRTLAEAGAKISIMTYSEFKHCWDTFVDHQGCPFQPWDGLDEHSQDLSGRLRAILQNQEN

[12] = target: DNA dC->dU-editing enzyme APOBEC-3A (Homo sapiens, UniProt P31941); assay: Dose Response confirmation of small molecule APOBEC3A DNA Deaminase Inhibitors via a fluorescence-based single-stranded DNA deaminase assay. [Related pubchem assays (depositor defined):AID493011, AID493024]; format: functional
Sequence of DNA dC->dU-editing enzyme APOBEC-3A (P31941 whole entry): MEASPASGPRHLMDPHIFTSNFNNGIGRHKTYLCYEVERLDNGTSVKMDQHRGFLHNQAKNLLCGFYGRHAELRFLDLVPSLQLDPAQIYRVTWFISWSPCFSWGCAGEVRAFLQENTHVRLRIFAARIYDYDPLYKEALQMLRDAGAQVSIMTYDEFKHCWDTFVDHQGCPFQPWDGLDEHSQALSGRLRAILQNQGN

H9c2 = assay: cells; format: functional, cell-based; settings: Rattus norvegicus, H9c2, Myocardium
Troponin, cardiac muscle = Troponin, cardiac muscle (Homo sapiens, UniProt P19429+P45379+P63316); assay: Fluorescence-based biochemical high throughput dose response assay for activators of the calcium sensitivity of cardiac Regulated Thin Filaments (RTF). [Related pubchem assays (depositor defined):AID493008, AID493018, AID504382, AID504383]; format: protein-complex assay
[13] = target: T5, RNA-binding protein pos-1 (Caenorhabditis elegans, UniProt G5EF15); assay: disruptors of C. elegans POS-1 RNA interaction – biochemical, fluorescence polarization, dose response (AID 1964);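 also: purified POS-1 fused to maltose binding protein made in E. coli; potency of compounds blocking POS-1 binding to fluorescent RNA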
T5 sequence (G5EF15 whole entry): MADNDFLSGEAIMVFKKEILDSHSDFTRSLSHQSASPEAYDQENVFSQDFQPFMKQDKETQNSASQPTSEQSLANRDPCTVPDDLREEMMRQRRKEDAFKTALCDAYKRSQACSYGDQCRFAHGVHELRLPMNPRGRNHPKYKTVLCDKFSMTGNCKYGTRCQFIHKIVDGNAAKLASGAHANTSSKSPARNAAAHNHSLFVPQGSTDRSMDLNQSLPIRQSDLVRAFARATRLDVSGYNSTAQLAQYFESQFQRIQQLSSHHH

[14] = target: T6, Zinc finger protein mex-5 (Caenorhabditis elegans, UniProt Q9XUB2); assay: potency of MEX-5 RNA-binding blockers – biochemical, C. elegans, fluorescence polarization, dose response (AID 1960)
T6 sequence (Q9XUB2 whole entry): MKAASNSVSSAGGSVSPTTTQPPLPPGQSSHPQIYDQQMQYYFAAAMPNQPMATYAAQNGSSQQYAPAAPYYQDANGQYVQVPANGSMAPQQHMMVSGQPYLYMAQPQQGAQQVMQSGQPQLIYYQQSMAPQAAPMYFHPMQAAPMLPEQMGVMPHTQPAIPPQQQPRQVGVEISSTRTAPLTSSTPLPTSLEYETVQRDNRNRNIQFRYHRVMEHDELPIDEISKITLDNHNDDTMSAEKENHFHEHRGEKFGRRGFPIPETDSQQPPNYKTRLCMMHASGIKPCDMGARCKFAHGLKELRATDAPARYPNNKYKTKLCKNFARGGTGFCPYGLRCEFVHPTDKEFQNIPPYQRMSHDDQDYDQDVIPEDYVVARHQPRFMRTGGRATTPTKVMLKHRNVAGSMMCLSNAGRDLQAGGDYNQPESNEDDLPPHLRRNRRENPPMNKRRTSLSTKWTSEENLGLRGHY

## COC(=O)c1cc(N2CCNCC2)nc2ccccc12
[1]
  EC50: 1.19 µM (active)

## Cc1ccc2c(c1)C1(SCCS1)C(=O)N2
Cytochrome P450 2C9
  AC50: inconclusive
Cytochrome P450 3A4
  AC50: 11.2 µM (inconclusive)

## COc1cc(Sc2ccc(C)cc2)c(OC)cc1N
[2]
  IC50: 24.8 µM (active)
[3]
  IC50: > 80 µM (inactive)

## FC(F)(F)c1ccc(Nc2nnnc3ccccc23)cc1
[4]
  CC50: > 40 µM (active)
H4
  EC50: 6.68 µM (active)
[5]
  EC50: 38 µM (active)
[6]
  IC50: 6.59 µM (active)
[7]
  IC50: 8.61 µM (active)
[8]
  EC50: 7.83 µM (active)

## COC(=O)c1cnn(C(=O)c2cc(OC)ccc2Br)c1N
Cytochrome P450 2C9
  AC50: inconclusive

## O=C(NCCc1c[nH]cn1)c1ccc(-c2ccccc2)cc1
[9]
  EC50: > 30 µM (not active)
cells
  EC50: 0.062 µM (active)
[10]
  EC50: < 0.1 µM (active)
[1]
  EC50: 5.96 µM (active)

## CC(=C\C(=O)O)/C(=C/c1ccccc1)C(=O)O
Cytochrome P450 2C9
  AC50: inconclusive

## Cc1cc(C)c2sc(NC(=O)C3=COCCO3)nc2c1
[3]
  IC50: > 80 µM (inactive)

## Cc1ccc(C)c(Cn2c(O)c(N=NC(S)=Nc3ccccc3F)c3ccccc32)c1
[9]
  EC50: > 60 µM (not active)
[10]
  EC50: 1.17 µM (active)
HEK293
  AC50: 2.44 µM (active)

## CCn1c2c(c(C)[n+]1CC)C(=O)CC(C)(C)C2
[11]
  IC50: 3.74 µM (active)
[12]
  IC50: 1.89 µM (active)
[7]
  IC50: 18.9 µM (active)

## Cc1ccc(C)c(S(=O)(=O)N2CCN(C(=O)CCc3nc(O)c4ccccc4n3)CC2)c1
H9c2
  IC50: > 79 µM (inactive)
[1]
  EC50: 4.73 µM (active)

## CC(=O)N1CCc2c(sc(NC(=O)C3CCCN3S(=O)(=O)c3cccs3)c2C(N)=O)C1 (stereo unspecified)
Troponin, cardiac muscle
  EC50: 18.5 µM (inactive)
[13]
  EC50: 10.2 µM (active)
[14]
  EC50: 5.83 µM (active)

## Cc1cccc(Cn2cc(C=O)c3ccccc32)c1
HEK293
  AC50: 33.3 µM (active)

## CCc1nc(NCCc2ccccn2)c2nnn(Cc3ccccc3F)c2n1
[1]
  EC50: 2.66 µM (active)
